Reference: patent US12421243B2, “Pharmaceutically effective compounds inhibiting selectively the myosin 2 isoforms” (PRINTNET KERESKEDELMI ÉS SZOLGÁLTATÓ KFT., priority 2018, dated 2025)

Columns and labels:
[1] = molecular target: recombinant Dictyostelium miozin (Dictyostelium) (Dictyostelium discoideum, UniProt P08799); assay: actomyosin steady state ATPase measurement, Dictyostelium myosin; format: biochemical; settings: for IC50: concentration required for semi-maximal inhibition of ATPase, read-out: IC50 (μM) Dicty; for % inhibition. complete Dicty: maximum value of inhibition of ATPase activity; for inhibition at 5 µM: read-out: % inhibition at 5 μM (or 10 μM if racemate) Dicty; for inhibition at 50 µM: read-out: % inhibition at 50 μM (or 100 μM if racemate) Dicty; for Inhibition (%) Dicty: maximum inhibition, compounds in IC50 range 1-11 μM
Source text: (§1) […]; (ii) the concentration required for semi-maximal inhibition.

[2] = molecular target: recombinant human non-muscle myosin 2 NM2C (Homo sapiens, UniProt Q7Z406); assay: actomyosin steady state ATPase measurement, NM2C; format: biochemical; settings: for IC50: concentration required for semi-maximal inhibition of ATPase; for % inhibition. complete NM2C: maximum value of inhibition of ATPase activity; for inhibition at 5 µM: read-out: % inhibition at 5 μM (or 10 μM if racemate) NM2C, 5 μM (10 μM if racemate); for inhibition at 5 µM / inhibition at 50 µM: ATPase activity; for inhibition at 50 µM: read-out: % inhibition at 50 μM (or 100 μM if racemate) NM2C, 50 μM (100 μM if racemate)
Source text: as §1

[3] = molecular target: T1, isolated porcine cardiac ventricular myocardium (cardiac) (Sus scrofa, UniProt P79293); assay: actomyosin steady state ATPase measurement, cardiac myosin; format: biochemical; settings: for IC50: concentration required for semi-maximal inhibition of ATPase; for % inhibition. complete cardiac: maximum value of inhibition of ATPase activity; for inhibition at 5 µM: read-out: % inhibition at 5 μM (or 10 μM if racemate) cardiac, 5 μM (10 μM if racemate); for inhibition at 5 µM / inhibition at 50 µM: ATPase activity; for inhibition at 50 µM: read-out: % inhibition at 50 μM (or 100 μM if racemate) cardiac, 50 μM (100 μM if racemate)
T1 construct: isolated porcine cardiac ventricular myocardium (cardiac); from tissue; host or cells: porcine cardiac ventricle
Source text: as §1

[4] = test system: isolated rabbit skeletal muscle myosin (skeletal); assay: actomyosin steady state ATPase measurement, skeletal muscle myosin; format: biochemical; settings: for % inhibition at 5 μM (or 10 μM if racemate) Skeletal: 5 μM (10 μM if racemate); for % inhibition at 5 μM (or 10 μM if racemate) Skeletal / % inhibition at 50 μM (or 100 μM if racemate) Skeletal: ATPase activity; for % inhibition at 50 μM (or 100 μM if racemate) Skeletal: 50 μM (100 μM if racemate); for IC50: concentration required for semi-maximal inhibition of ATPase; for % inhibition. complete Skeletal: maximum value of inhibition of ATPase activity; for Inhibition (%) skeletal: maximum inhibition, compounds in IC50 range 1-2 μM
Source text: as §1

[5] = molecular target: isolated smooth muscle myosin (UniProt P10587); format: biochemical, chamois; settings: concentration required for semi-maximal inhibition of ATPase
Source text: (ii) the concentration required for semi-maximal inhibition.

[6] = molecular target: isolated smooth muscle myosin (UniProt P10587); format: biochemical, chamois; settings: for % inhibition at 5 μM (or 10 μM if racemate) Smooth: 5 μM (10 μM if racemate); for % inhibition at 5 μM (or 10 μM if racemate) Smooth / % inhibition at 50 μM (or 100 μM if racemate) Smooth: ATPase activity; for % inhibition at 50 μM (or 100 μM if racemate) Smooth: 50 μM (100 μM if racemate); for % inhibition. complete Smooth: maximum value of inhibition of ATPase activity
[7] = maximum inhibition, compounds in IC50 range 1-5 μM

T1 sequence (P79293 whole entry): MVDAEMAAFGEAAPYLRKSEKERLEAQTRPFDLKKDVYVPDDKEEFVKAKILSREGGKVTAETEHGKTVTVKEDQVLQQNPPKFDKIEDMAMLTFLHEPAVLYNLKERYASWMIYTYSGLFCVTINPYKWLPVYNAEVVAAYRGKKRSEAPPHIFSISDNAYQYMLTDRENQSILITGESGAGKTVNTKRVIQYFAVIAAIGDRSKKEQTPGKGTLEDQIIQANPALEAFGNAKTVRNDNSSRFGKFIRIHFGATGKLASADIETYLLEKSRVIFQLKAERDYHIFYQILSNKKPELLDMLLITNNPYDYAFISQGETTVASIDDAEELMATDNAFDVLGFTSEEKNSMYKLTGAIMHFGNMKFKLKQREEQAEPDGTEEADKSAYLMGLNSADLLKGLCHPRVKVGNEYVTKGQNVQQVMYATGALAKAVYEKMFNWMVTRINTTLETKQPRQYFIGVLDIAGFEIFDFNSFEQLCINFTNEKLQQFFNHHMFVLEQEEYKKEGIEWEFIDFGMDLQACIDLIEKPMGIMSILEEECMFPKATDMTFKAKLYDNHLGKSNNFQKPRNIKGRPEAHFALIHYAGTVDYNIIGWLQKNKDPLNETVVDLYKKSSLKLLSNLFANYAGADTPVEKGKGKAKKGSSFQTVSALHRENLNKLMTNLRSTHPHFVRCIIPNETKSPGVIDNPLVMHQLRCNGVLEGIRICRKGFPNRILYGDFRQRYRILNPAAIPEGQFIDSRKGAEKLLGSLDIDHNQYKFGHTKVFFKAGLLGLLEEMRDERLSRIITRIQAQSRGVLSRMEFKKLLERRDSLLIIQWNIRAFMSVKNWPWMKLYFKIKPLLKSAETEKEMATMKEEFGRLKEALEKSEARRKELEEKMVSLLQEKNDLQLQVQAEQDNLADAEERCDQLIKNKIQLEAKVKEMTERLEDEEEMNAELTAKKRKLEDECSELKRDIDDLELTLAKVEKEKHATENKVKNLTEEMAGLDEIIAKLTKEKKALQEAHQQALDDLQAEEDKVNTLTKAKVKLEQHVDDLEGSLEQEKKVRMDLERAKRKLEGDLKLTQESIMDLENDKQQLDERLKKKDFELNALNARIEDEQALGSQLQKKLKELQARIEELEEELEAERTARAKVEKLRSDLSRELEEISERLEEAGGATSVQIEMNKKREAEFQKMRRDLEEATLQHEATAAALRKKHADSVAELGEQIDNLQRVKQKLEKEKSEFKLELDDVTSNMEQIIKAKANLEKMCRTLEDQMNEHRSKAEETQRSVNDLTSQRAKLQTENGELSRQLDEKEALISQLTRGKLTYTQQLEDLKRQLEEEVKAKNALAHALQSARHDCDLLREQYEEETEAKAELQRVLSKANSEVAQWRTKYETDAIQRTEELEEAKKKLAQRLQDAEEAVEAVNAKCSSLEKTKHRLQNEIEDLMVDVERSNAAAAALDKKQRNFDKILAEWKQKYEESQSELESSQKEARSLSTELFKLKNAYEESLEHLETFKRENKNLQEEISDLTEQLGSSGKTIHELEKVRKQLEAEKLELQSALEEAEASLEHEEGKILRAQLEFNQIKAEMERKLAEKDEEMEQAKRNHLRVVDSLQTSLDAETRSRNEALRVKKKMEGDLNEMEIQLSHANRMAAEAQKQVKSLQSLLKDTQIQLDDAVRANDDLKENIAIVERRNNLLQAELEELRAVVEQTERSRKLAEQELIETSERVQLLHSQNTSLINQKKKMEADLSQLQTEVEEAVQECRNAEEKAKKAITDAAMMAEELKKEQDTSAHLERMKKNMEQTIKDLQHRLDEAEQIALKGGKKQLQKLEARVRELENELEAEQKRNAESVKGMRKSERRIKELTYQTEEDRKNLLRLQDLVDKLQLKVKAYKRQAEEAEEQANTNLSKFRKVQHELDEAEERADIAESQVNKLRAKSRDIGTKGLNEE
Sequence of recombinant human non-muscle myosin 2 NM2C (Q7Z406 whole entry): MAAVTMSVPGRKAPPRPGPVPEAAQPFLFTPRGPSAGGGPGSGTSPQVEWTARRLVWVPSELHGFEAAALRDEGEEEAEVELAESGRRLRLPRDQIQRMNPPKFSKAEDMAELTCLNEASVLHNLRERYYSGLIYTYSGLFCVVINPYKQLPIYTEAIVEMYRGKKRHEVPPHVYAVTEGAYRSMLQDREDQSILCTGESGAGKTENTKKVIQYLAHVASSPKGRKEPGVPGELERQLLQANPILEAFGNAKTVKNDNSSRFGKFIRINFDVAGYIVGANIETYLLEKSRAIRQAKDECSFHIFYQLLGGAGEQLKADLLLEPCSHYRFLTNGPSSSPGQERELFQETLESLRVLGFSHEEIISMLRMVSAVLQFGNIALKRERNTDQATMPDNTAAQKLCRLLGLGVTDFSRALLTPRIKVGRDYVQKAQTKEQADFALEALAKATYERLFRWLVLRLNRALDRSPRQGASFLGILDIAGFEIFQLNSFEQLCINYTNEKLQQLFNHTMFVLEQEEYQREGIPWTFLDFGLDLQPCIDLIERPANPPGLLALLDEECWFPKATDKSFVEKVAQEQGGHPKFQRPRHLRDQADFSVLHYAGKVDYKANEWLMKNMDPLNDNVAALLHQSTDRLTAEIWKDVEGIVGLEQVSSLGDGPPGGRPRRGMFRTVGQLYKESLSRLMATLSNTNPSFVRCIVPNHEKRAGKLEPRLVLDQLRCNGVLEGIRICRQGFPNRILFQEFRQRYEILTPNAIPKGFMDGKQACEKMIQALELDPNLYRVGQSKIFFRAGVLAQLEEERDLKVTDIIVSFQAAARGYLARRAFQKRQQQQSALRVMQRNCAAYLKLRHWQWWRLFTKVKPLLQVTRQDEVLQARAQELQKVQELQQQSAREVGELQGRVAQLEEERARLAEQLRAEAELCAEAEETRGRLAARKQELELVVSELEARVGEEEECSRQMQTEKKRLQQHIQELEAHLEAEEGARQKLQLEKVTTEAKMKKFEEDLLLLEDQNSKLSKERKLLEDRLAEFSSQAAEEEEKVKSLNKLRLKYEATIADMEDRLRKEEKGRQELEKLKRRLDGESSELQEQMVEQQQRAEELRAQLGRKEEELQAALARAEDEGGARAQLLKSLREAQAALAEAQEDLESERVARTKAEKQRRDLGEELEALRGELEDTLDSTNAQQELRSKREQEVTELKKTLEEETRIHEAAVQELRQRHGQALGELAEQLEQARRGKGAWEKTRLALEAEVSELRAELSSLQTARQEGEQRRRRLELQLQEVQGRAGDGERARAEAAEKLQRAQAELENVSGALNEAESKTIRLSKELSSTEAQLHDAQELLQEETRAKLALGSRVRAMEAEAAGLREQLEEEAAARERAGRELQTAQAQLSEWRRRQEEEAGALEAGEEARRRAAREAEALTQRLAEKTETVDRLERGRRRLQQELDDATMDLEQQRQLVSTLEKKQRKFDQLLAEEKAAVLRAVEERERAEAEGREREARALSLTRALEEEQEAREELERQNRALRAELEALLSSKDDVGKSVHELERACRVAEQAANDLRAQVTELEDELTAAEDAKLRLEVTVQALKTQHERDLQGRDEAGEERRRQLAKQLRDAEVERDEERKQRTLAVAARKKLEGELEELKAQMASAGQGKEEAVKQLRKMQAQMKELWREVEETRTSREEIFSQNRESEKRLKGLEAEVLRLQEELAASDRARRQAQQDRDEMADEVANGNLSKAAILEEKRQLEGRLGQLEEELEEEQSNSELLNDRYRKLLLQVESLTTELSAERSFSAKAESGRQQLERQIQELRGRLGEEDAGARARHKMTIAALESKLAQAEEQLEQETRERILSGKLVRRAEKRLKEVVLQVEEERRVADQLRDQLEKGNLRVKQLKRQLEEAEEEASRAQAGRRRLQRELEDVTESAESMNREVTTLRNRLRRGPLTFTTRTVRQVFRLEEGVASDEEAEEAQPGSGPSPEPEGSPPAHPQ

Row | SMILES | IC50 [1] | % inhibition. complete Dicty [1] | inhibition at 5 µM [1] | inhibition at 50 µM [1] | IC50 [2] | % inhibition. complete NM2C [2] | inhibition at 5 µM [2] | inhibition at 50 µM [2] | IC50 [3] | % inhibition. complete cardiac [3] | inhibition at 5 µM [3] | inhibition at 50 µM [3] | % inhibition at 5 μM (or 10 μM if racemate) Skeletal [4] | % inhibition at 50 μM (or 100 μM if racemate) Skeletal [4] | IC50 [4] | % inhibition. complete Skeletal [4] | IC50 [5] | % inhibition at 5 μM (or 10 μM if racemate) Smooth [6] | % inhibition at 50 μM (or 100 μM if racemate) Smooth [6] | % inhibition. complete Smooth [6] | other results
1 | N#CCc1ccc(N2CC[C@@]3(O)C(=O)c4ccsc4N=C23)cc1 [Compound 215, (9S)-2-(4-{9-Hydroxy-8-oxo-4-thia-2,12-diazatricyclo[7.3.0.0^3,7]dodeca-1,3(7),5-trien-12-yl}phenyl)acetonitrile] | 12.1 µM | 78% | 23% | 63% | 19 µM | 77% | 16% | 56% | 5.6 µM | 94% | 42% | 84% | 80% | 96% | 1.1 µM | 98% | 2.3 µM | 31% | 45% | 47% | Inhibition (%) smooth [6, 7]: 47%
2 | O=C1c2ccsc2N=C2N(c3ccc(CO)cc3)CC[C@@]12O [Compound 216, (9S)-9-Hydroxy-12-[4-(hydroxymethyl)phenyl]-4-thia-2,12-diazatricyclo[7.3.0.0^3,7]dodeca-1,3(7),5-trien-8-one] | 13.3 µM | 74% | 20% | 58% | 23 µM | 75% | 13% | 51% | 2.4 µM | 89% | 58% | 85% | 74% | 95% | 1.6 µM | 98% | 8.3 µM | 17% | 39% | 46% | Inhibition (%) skeletal [4]: 98%
3 | O=C1c2ccsc2N=C2N(c3cccs3)CC[C@@]12O [Compound 218, (9S)-9-Hydroxy-12-(thiophen-2-yl)-4-thia-2,12-diazatricyclo[7.3.0.0^3,7]dodeca-1,3(7),5-trien-8-one] | 78 µM | 100% | 4% | 39% | 44 µM | 20% | 2% | 11% | 2.7 µM | 79% | 49% | 75% | 50% | 85% | 4.2 µM | 92% | 8.1 µM | 10% | 24% | 28% | –
4 | COc1ccc(N2CC[C@@]3(O)C(=O)c4ccsc4N=C23)cn1 [Compound 219, (9S)-9-Hydroxy-12-(6-methoxypyridin-3-yl)-4-thia-2,12-diazatricyclo[7.3.0.0^3,7]dodeca-1,3(7),5-trien-8-one] | 43 µM | 100% | 6% | 56% | 8.1 µM | 21% | 8% | 18% | 4.1 µM | 84% | 44% | 78% | 69% | 91% | 1.8 µM | 94% | 6.9 µM | 15% | 32% | 36% | Inhibition (%) cardiac ([3]; maximum inhibition, compounds in IC50 range 3-6 μM): 84%; Inhibition (%) skeletal [4]: 94%
5 | Cc1cc2c(s1)N=C1N(c3ccc(N)cc3)CCC1(O)C2=O (centres unmarked) [Compound 221, 12-(4-Aminophenyl)-9-hydroxy-5-methyl-4-thia-2,12-diazatricyclo[7.3.0.0^3,7]dodeca-1,3(7),5-trien-8-one] | 11.6 µM | 100% | 27% | 85% | 4.1 µM | 61% | 32% | 56% | 0.9 µM | 79% | 65% | 78% | 65% | 91% | 1.8 µM | 92% | 6 µM | 43% | 87% | 97% | Inhibition (%) NM2C [2, 7]: 61%; Inhibition (%) skeletal [4]: 92%
6 | COc1ccc(N2CCC3(O)C(=O)c4cc(C)sc4N=C23)cc1 (centres unmarked) [Compound 222, 9-Hydroxy-12-(4-methoxyphenyl)-5-methyl-4-thia-2,12-diazatricyclo[7.3.0.0^3,7]dodeca-1,3(7),5-trien-8-one] | 4.7 µM | 100% | 49% | 99% | 0.76 µM | 91% | 77% | 89% | 0.52 µM | 93% | 82% | 92% | 92% | 95% | 0.11 µM | 95% | 0.86 µM | 83% | 97% | 98% | –
7 | Cc1cc2c(s1)N=C1N(c3ccc(C#N)cc3)CCC1(O)C2=O (centres unmarked) [Compound 224, 4-{9-Hydroxy-5-methyl-8-oxo-4-thia-2,12-diazatricyclo[7.3.0.0^3,7]dodeca-1,3(7),5-trien-12-yl}benzonitrile] | 2.8 µM | 89% | 64% | 86% | 1.2 µM | 93% | 72% | 91% | 1.7 µM | 99% | 72% | 96% | 94% | 98% | 0.21 µM | 98% | 1.7 µM | 72% | 96% | 99% | –
8 | CC(=O)c1ccc(N2CCC3(O)C(=O)c4cc(C)sc4N=C23)cc1 (centres unmarked) [Compound 225, 12-(4-Acetylphenyl)-9-hydroxy-5-methyl-4-thia-2,12-diazatricyclo[7.3.0.0^3,7]dodeca-1,3(7),5-trien-8-one] | 4.1 µM | 100% | 64% | 97% | 2.8 µM | 78% | 47% | 74% | 2.4 µM | 100% | 68% | 96% | 93% | 95% | 0.17 µM | 96% | 2.2 µM | 68% | 96% | 100% | Inhibition (%) Dicty [1]: 100%
9 | Cc1cc2c(s1)N=C1N(c3ccc(CC#N)cc3)CCC1(O)C2=O (centres unmarked) [Compound 226, 2-(4-{9-Hydroxy-5-methyl-8-oxo-4-thia-2,12-diazatricyclo[7.3.0.0^3,7]dodeca-1,3(7),5-trien-12-yl}phenyl)acetonitrile] | 5.5 µM | 92% | 43% | 83% | 1.5 µM | 92% | 69% | 90% | 0.73 µM | 85% | 72% | 83% | 91% | 92% | 0.17 µM | 93% | 0.5 µM | 72% | 79% | 80% | Inhibition (%) Dicty [1]: 92%
